“And” between values parts separate entries of the source, which are not always exact repeats. Equal entries are not always repeated. “Also recorded” adds a separate entry of the source. Where two headings read alike, the source gives them in different places.
Columns and labels:
MTT cytotoxicity assay = assay type: cell-based, human; conditions: human
Protocol: (§1) The cytotoxicity of RSV derivatives was evaluated on A549 cells using MTT (3-(4,5-dimethylthiazol-2-yl)-2,5-diphenyl tetrazolium bromide) reagent (Sigma-Aldrich, St. Louis, MO, USA). In this assay, cells were seeded in a 96-well plate at a concentration of 2 × 10^4/well in DMEM without phenol red and supplemented with 10% FBS. The compounds were dissolved in DMSO and added to the cell monolayer. After 24 h, 10 µL of the 5 mg/mL solution of MTT was added to the cell culture, which was incubated at 37 °C for 3 h. Then, the medium was solubilized in absolute isopropanol containing 0.1 N HCl. The absorbance of converted dye was measured in an ELISA plate reader at a wavelength of 590 nm. The results were used to calculate the 50% cytotoxic concentration (CC50), defined as the concentration of RSV derivatives required to reduce cell viability by 50% compared with the solvent-treated (DMSO) control condition.

[1] = system: influenza A Puerto Rico 8/34/H1N1 (PR8) virus; experiment: microbe, parasite or virus in culture; assay type: cell-based; conditions: for IC50: Influenza A virus, A549, 24 h, read-out: IC50 (concentration causing 50% reduction in viral infection); for Selectivity Index (SI): ratio CC50/IC50, A549
[2] = system: influenza A PR/8/H1N1 virus; assay type: cell-based
[3] = system: influenza A PR/8/H1N1 virus; assay type: cell-based; remark: listed apart in the source
[4] = system: GSH-mediated antioxidant response; experiment: Glutathione assay in infected A549 cells; assay type: cell-based, human; conditions: A549, 24 h PR8 infection and treatment
Protocol: The total glutathione was analyzed by the Glutathione Assay Kit (ADI-900-160 Enzo) following the manufacturer’s instructions. For GSSG quantification, the samples were deproteinized with metaphosphoric acid, and an aliquot was incubated with 2-vinylpyridine to derivatize the reduced form, GSH [46]. The GSH levels were obtained by the subtraction of GSSG from the total glutathione and then normalized to the protein content of each sample determined by the Bradford method (Bio-Rad, Hercules, CA, USA).

[5] = system: influenza A PR/8/H1N1 virus; assay type: cell-based; conditions: supernatants from A549 treated with 10-30 μg/mL, 24 h
A549 cells = experiment: MTT cytotoxicity assay; assay type: cell-based, human
Protocol: as §1

GSH level = system: GSH level; parameters: method as in PMID 15838800; conditions: infected conditions; cited from earlier work
[6] = A549, MTT, 24 h, read-out: CC50 (concentration required to reduce cell viability by 50%)

SMILES: N#Cc1ccc(/C=C/c2ccc(O)cc2)cc1 [Compound 8]
- CC50 at 24 h (MTT cytotoxicity assay): 92 µg/mL and 415 µM
- IC50 [1]: 45.1 µg/mL and 203 µM
- Selectivity Index (SI) [1]: 2

SMILES: O=[N+]([O-])c1ccc(/C=C/c2ccc(O)cc2)cc1 [Compound 7]
- early viral nucleoprotein (NP) expression [2]: decrease
- CC50 at 24 h (MTT cytotoxicity assay; [6]): 116 µg/mL and 481 µM
- viral titer / viral particle production (HAU) [3]: markedly decreased; also recorded: drastically reduced
- rescue of GSH-mediated antioxidant response (total glutathione, GSH/GSSG) [4]: do not rescue
- IC50 [1]: 19.5 µg/mL and 80 µM
- Selectivity Index (SI) [1]: 5.9
- HA protein expression on MDCK cells infected with supernatants [5]: markedly reduced

SMILES: Oc1ccc(/C=C/c2ccc(C(F)(F)F)cc2)cc1 [Compound 5]
- CC50 at 24 h (MTT cytotoxicity assay): 59 µg/mL and 223 µM
- IC50 [1]: 23.4 µg/mL and 88 µM
- Selectivity Index (SI) [1]: 2.5

SMILES: O=[N+]([O-])c1ccc(/C=C/c2ccc(O)c(Br)c2)cc1 [Compound 12, (E)-2-Bromo-4-(4-Nitrostyryl)Phenol]
- cytotoxicity on the A549 cell monolayer (A549 cells): did not show cytotoxicity
- rescue of GSH-mediated antioxidant response (total glutathione, GSH/GSSG) [4]: do not rescue
- melting point: 200.2 to 200.4 °C

SMILES: Oc1ccc(/C=C/c2ccc(Cl)cc2Cl)cc1 [Compound 3]
- CC50 at 24 h (MTT cytotoxicity assay): 30.3 µg/mL and 114 µM
- IC50 [1]: 12.2 µg/mL and 46 µM
- Selectivity Index (SI) [1]: 2.4

SMILES: O=[N+]([O-])c1cc(/C=C/c2ccc(Cl)cc2)ccc1O [Compound 13, (E)-4-(4-Chlorostyryl)-2-Nitrophenol]
- early viral nucleoprotein (NP) expression [2]: decrease
- cytotoxicity on the A549 cell monolayer (A549 cells): did not show cytotoxicity
- rescue of GSH-mediated antioxidant response (total glutathione, GSH/GSSG) [4]: do not rescue
- melting point: 176.5 to 177.9 °C

SMILES: COc1ccc(/C=C/c2ccc(O)cc2)cc1 [Compound 9]
- CC50 at 24 h (MTT cytotoxicity assay): 106 µg/mL and 466 µM
- IC50 [1]: 31.7 µg/mL and 104 µM
- Selectivity Index (SI) [1]: 3.3

SMILES: O=[N+]([O-])c1ccc(/C=C/c2ccc(O)c(Cl)c2)cc1 [Compound 6]
- early viral nucleoprotein (NP) expression [2]: decrease
- CC50 at 24 h (MTT cytotoxicity assay; [6]): 212 µg/mL and 770 µM
- viral titer / viral particle production (HAU) [3]: markedly decreased; also recorded: drastically reduced
- rescue of GSH-mediated antioxidant response (total glutathione, GSH/GSSG) [4]: do not rescue
- inhibition of HA expression [1]: 75%
- IC50 [1]: 17.1 µg/mL and 62 µM
- Selectivity Index (SI) [1]: 12.4
- HA protein expression on MDCK cells infected with supernatants [5]: markedly reduced

SMILES: Oc1ccc(/C=C/c2ccc(Cl)cc2Cl)cc1Cl [Compound 2]
- CC50 at 24 h (MTT cytotoxicity assay): 39.5 µg/mL and 131 µM
- IC50 [1]: 13.5 µg/mL and 45 µM
- Selectivity Index (SI) [1]: 2.9

SMILES: Oc1ccc(/C=C/c2ccccc2)cc1Cl [Compound 1]
- CC50 at 24 h (MTT cytotoxicity assay): 87.3 µg/mL and 378 µM
- IC50 [1]: 20.7 µg/mL and 89 µM
- Selectivity Index (SI) [1]: 4.2

SMILES: Oc1ccc(/C=C/c2ccc(C(F)(F)F)cc2)cc1Cl [Compound 4]
- CC50 at 24 h (MTT cytotoxicity assay): 38.8 µg/mL and 129 µM
- IC50 [1]: 14.6 µg/mL and 48 µM
- Selectivity Index (SI) [1]: 2.6

SMILES: Oc1ccc(C=Cc2cc(O)cc(O)c2)cc1 [RSV, 3,4′,5-trihydroxystilbene]
- rescue of GSH level (GSH level): did not rescue

Reference: article PMC9505218, “Nitrostilbenes: Synthesis and Biological Evaluation as Potential Anti-Influenza Virus Agents” (Pharmaceuticals, 2022)
